In ChEMBL document CHEMBL5360551, “Exploration of LPS2 agonist binding modes using the combination of a new hydrophobic scaffold and homology modeling” (Eur J Med Chem, 2023):
Active and inactive are the calls of the source. The rule behind the calls is not given here.

What was measured:
Type in all cases: functional, cell-based
[1] = target: Putative P2Y purinoceptor 10 (Mus musculus, UniProt Q8BFU7); experiment: Agonist activity at mouse LPS2/P2Y10 transfected in HEK293-A cells co-transfected with AP-TGFalpha assessed as AP-TGFalpha release by TGFalpha shedding assay; settings: read-out: EC50
[2] = target: Putative P2Y purinoceptor 10 (Mus musculus) (UniProt Q8BFU7); experiment: Agonist activity at mouse LPS2/P2Y10 transfected in HEK293-A cells co-transfected with AP-TGFalpha assessed as AP-TGFalpha release by TGFalpha shedding assay relative to LysoPS; settings: filed as agonist
[3] = target: T1, Putative P2Y purinoceptor 10 (Homo sapiens, UniProt O00398); experiment: Agonist activity at human LPS2/P2Y10 transfected in HEK293-A cells co-transfected with AP-TGFalpha assessed as AP-TGFalpha release by TGFalpha shedding assay; settings: read-out: EC50
[4] = target: T1, Putative P2Y purinoceptor 10; experiment: Agonist activity at human LPS2/P2Y10 transfected in HEK293-A cells co-transfected with AP-TGFalpha assessed as AP-TGFalpha release by TGFalpha shedding assay relative to LysopPS; settings: filed as agonist
[5] = system: McA-RH7777; experiment: Induction of actin stress fiber formation in rat McA-RH7777 cells expressing mouse LPS2 at 1 nM incubated for 30 mins by Alexa594-labelled phalloidin staining based fluorescence microscopic analysis
[6] = system: McA-RH7777; experiment: Induction of actin stress fiber formation in rat McA-RH7777 cells expressing mouse LPS2 at 1 uM incubated for 30 mins by Alexa594-labelled phalloidin staining based fluorescence microscopic analysis
[7] = system: McA-RH7777; experiment: Induction of actin stress fiber formation in rat McA-RH7777 cells expressing mouse LPS2 at 0.001 to 1 uM incubated for 30 mins by Alexa594-labelled phalloidin staining based fluorescence microscopic analysis; settings: dose 0.001-1 µM

Sequence of Putative P2Y purinoceptor 10 (Mus musculus) (Q8BFU7 whole entry): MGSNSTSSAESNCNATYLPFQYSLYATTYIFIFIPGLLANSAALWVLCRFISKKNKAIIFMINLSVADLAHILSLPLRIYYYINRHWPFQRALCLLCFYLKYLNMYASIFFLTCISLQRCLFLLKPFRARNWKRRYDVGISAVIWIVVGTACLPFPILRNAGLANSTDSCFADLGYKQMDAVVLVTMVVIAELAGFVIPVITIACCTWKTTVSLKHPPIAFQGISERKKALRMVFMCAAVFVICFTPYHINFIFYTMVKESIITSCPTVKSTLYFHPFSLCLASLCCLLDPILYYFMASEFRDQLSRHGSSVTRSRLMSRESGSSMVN
Sequence of Putative P2Y purinoceptor 10 (Mus musculus, UniProt Q8BFU7) (Q8BFU7 whole entry): as above
T1 sequence (O00398 whole entry): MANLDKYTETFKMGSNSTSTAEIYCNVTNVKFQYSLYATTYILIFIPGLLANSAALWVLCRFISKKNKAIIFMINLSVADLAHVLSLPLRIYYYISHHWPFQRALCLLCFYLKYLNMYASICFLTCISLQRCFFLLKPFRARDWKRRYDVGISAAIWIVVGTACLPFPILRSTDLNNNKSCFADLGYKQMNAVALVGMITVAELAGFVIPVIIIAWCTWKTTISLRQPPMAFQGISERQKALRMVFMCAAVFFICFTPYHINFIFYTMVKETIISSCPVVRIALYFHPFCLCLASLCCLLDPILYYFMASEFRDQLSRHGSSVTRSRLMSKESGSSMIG

SMILES	EC50 [1]	Emax [2]	EC50 [3]	Emax [4]	Activity [5]	Activity [6]	Activity [7]
N[C@@H](COP(=O)(O)OCCCOC(=O)CCc1ccccc1Oc1ccc(-c2cc(-c3ccccc3)cc(-c3ccccc3)c2)cc1)C(=O)O	1.9 nM	83%	6.1 nM	112%	Active	–	–
N[C@@H](COP(=O)(O)OCCCOC(=O)CCc1ccccc1Oc1ccc(-c2cccc(-c3ccccc3)c2)cc1)C(=O)O	1 nM	113%	22 nM	125%	Active	–	–
CCCCCCCC/C=C\CCCCCCCC(=O)OC[C@@H](O)COP(=O)(O)OC[C@H](N)C(=O)O	21 nM	–	–	–	–	Active	–
N[C@@H](COP(=O)(O)OCCCOC(=O)CCc1ccccc1Oc1ccc(-c2ccc(C(=O)O)cc2)cc1)C(=O)O	170 nM	100%	–	–	–	–	inactive
